Experimental data as given in patent publication EP0852142A1, “Diamines in the treatment of arrhythmia” (SMITHKLINE BEECHAM LABORATOIRES PHARMACEUTIQUES, priority 1992, dated 1993).
Values joined by “and” are separate entries in the source; they are usually repeats but may differ in a detail not shown here. Identical values can stand only once.

How the values were obtained:
anesthetized dog = assay: Hemodynamic and electrocardiographic parameters in anesthetized dogs (before and during LCX occlusion/reperfusion); format: in vivo; details: for QTc: Bazett
Procedure: Surgical preparation. Dogs were anesthetized using 30 mg/kg i.v. sodium pentobarbital. […] A catheter was inserted into the right femoral artery to measure the systemic arterial pressure (Statham P23 ID, GOULD). A 5F Millar microtip catheter pressure transducer was inserted into the left carotid artery and advanced into the left ventricular lumen to measure the left ventricular pressure (LVP) and its first positive derivative dP/dt. Peripheral venous and arterial catheters were placed for drug administration and blood samples collection, respectively. Electrocardiographic variables were measured via a standard lead II ECG. For determination of the Q-T interval of ECG a CV5RL precordial lead of ECG was measured as previously described (Koerner et al.,J.,Cardiovascular Pharmacol. […] After a left thoracotomy through the fifth intercostal space, the heart was suspended in a pericardial cradle. The left circumflex coronary artery (LCX) was isolated close to its origin and a silk suture was placed around it for later occlusion. Experimental time course. After placement of the silk strand the animal was allowed to stabilize for at least 10 minutes. Arterial blood gases were determined (ABL500, Radiometer), and ventilation was adjusted to maintain these parameters within the normal range. Then, intravenous administration of the drug was performed in 10 minutes. After the drug administration, hemodynamic and ECG variables were again measured and the LCX was occluded for 45 minutes by placing a microclamp. Reperfusion performed by removing the clamp was continued for 5 hours. Arterial blood pressure and ECG were recorded continuously on a Gould polyrecorder. Signals were digitised by an A/D convertor and analysed on an IBM computer using an interactive software (Clodia, Clod sarl) and then transfered to a VAX 4000-200 computer (Digital Equipment Corporation, Maynard, MA) for further analysis. Heart rate was calculated from the ECG. […] QTc = (QT interval in msec) / (R-R interval in sec)^½.

[1] = system: Ischemia and reperfusion-induced arrhythmias; assay: Ischemia and reperfusion-induced arrhythmias (ventricular fibrillation) in anesthetized dogs; format: in vivo, dog
Procedure: Surgical preparation. Dogs were anesthetized using 30 mg/kg i.v. sodium pentobarbital. […] A catheter was inserted into the right femoral artery to measure the systemic arterial pressure (Statham P23 ID, GOULD). A 5F Millar microtip catheter pressure transducer was inserted into the left carotid artery and advanced into the left ventricular lumen to measure the left ventricular pressure (LVP) and its first positive derivative dP/dt. Peripheral venous and arterial catheters were placed for drug administration and blood samples collection, respectively. Electrocardiographic variables were measured via a standard lead II ECG. […] After a left thoracotomy through the fifth intercostal space, the heart was suspended in a pericardial cradle. The left circumflex coronary artery (LCX) was isolated close to its origin and a silk suture was placed around it for later occlusion.
Experimental time course. After placement of the silk strand the animal was allowed to stabilize for at least 10 minutes. Arterial blood gases were determined (ABL500, Radiometer), and ventilation was adjusted to maintain these parameters within the normal range. Then, intravenous administration of the drug was performed in 10 minutes. After the drug administration, hemodynamic and ECG variables were again measured and the LCX was occluded for 45 minutes by placing a microclamp. Reperfusion performed by removing the clamp was continued for 5 hours.
Measurements. Ventricular arrhythmias were analyzed during the preischemic period, during ischemia and during the first hour of reperfusion. Ventricular premature beats (VPBs) were defined as identifiable premature QRS complexes and salvos as more than 2 consecutive VPBs. Ventricular tachycardia was defined as 4 or more consecutive VPBs. Ventricular fibrillation (VF) was diagnosed when total irregularity of rhythm occurred and when a rate could no longer be measured. If defibrillation was required a DC shock was given.

[2] = system: guinea pig papillary muscles; assay: Electrophysiological studies: transmembrane action potentials of isolated papillary muscle; format: cell-based, Guinea pigs; details: for resting membrane potential, action potential amplitude, Vmax: even at the highest concentrations
Procedure: Guinea pigs (300-350 g) were anesthetized by intravenous injection of sodium pentobarbital (60 mg/kg). After thoracotomy the heart was rapidly excised and placed in oxygenated Tyrode solution. Papillary muscles were removed from the right ventricle. Preparations were then fixed to the silastic base of a 5 ml organ bath and superfused with oxygenated Tyrode solution maintained at 37 ± 1 °C.
The solution was equilibrated with a gas mixture of 95% O2 - 5% CO2.
After a stabilisation period (at least 1 h), transmembrane action potentials were recorded with conventional microelectrodes (10 MOhm) connected to a high input impedance amplifier (BIOLOGIC VF 180). External stimuli were delivered to the preparation with bipolar platinum electrodes placed at one end of the muscle. The pulse duration was 1 ms and the amplitude was twice threshold. The basic cycle length was 1000 ms (PULSAR 6i stimulator). The signals were monitored on a storage oscilloscope (GOULD 1602) and simultaneously recorded on a digital tape recorder (BIOLOGIC DTR 1200) for further analysis.
Measurements were made of resting membrane potential (RMP), action potential amplitude (APA) and action potential durations at 30, 50 and 90% repolarization (APD30, APD50 and APD90 respectively). Recordings were made after 30 min of equilibration for each concentration. Only recordings in which the same impalement was maintained throughout the entire experiment were used for analysis.

[3] = preischemic period, Compound I 0.3 and 1.0 mg/kg, d-sotalol 3.0 and 10.0 mg/kg

COc1ccc(CCN(C)CCCN(C(=O)c2ccc([N+](=O)[O-])cc2)c2ccc(OC)c(OC)c2)cc1OC [Compound I, (N-[3,4-dimethoxy-phenyl]-N-3-[N'-2-(3,4-dimethoxyphenyl)-ethyl-N'-methylamino]propyl)-N'-4-nitrobenzamide]
PR (anesthetized dog; dog, in vivo): 112 ± 4 ms and 120 ± 6 ms and 115 ± 7 ms and 116 ± 3 ms and 113 ± 3 ms | heart rate (anesthetized dog; dog, in vivo): reduced heart rate in a dose-dependent manner | mean arterial and left ventricular pressure (anesthetized dog; dog, in vivo): only minimal changes | pressure rate product (anesthetized dog; dog, in vivo): reduced the pressure rate product | incidence of ventricular fibrillation ([1]; 0.3 mg/kg, 45 min ischemia and first 60 min of reperfusion, control dogs 66.7 %): 33.3% | incidence of ventricular fibrillation ([1]; 1.0 mg/kg, 45 min ischemia and first 60 min of reperfusion, control dogs 66.7 %, p <0.05): 14.3% | ventricular fibrillation during ischemia ([1]; 0.3 or 1.0 mg/kg, ischemic period): none of the dogs treated with Compound I experienced ventricular fibrillation during ischemia | Overshoot ([2]; 0.3 µM): 36 ± 1 mV | Vmax ([2]; 0.3 µM): 168 ± 14 V/sec | APD50 ([2]; 0.3 µM, action potential duration at 50 % of the repolarization): 162 ± 6 ms | RMP ([2]; 0.3 µM, resting membrane potential): -92 ± 1 mV | APD50 ([2]; 1 µM): 170 ± 5 ms | Overshoot ([2]; 1 µM): 35 ± 1 mV | RMP ([2]; 1 µM): -92 ± 1 mV | Vmax ([2]; 1 µM): 168 ± 14 V/sec | APD50 ([2]; 3 µM): 163 ± 5 ms | Overshoot ([2]; 3 µM): 34 ± 1 mV | RMP ([2]; 3 µM): -92 ± 1 mV | Vmax ([2]; 3 µM): 169 ± 14 V/sec | APD50 ([2]; 10 µM): 139 ± 6 ms | Overshoot ([2]; 10 µM): 33 ± 2 mV | RMP ([2]; 10 µM): -91 ± 1 mV | Vmax ([2]; 10 µM): 167 ± 15 V/sec | resting membrane potential, action potential amplitude, Vmax [2]: did not change | action potential duration ([2]; prolongation at 0.3 and 1 µM, no further increase at 3 µM, reduced at 10 µM): biphasic effect

CC(C)NCC(O)c1ccc(NS(C)(=O)=O)cc1 (stereo not drawn) [d-Sotalol]
PR (anesthetized dog; 3.0 mg/kg i.v., After drug, before drug 105 ± 5): 118 ± 7 ms | QT (anesthetized dog; 3.0 mg/kg i.v., After drug, before drug 238 ± 11): 269 ± 12 ms | QTc (anesthetized dog; 3.0 mg/kg i.v., After drug, before drug 384 ± 8): 397 ± 11 msec/sec^½ | PR (anesthetized dog; 3.0 mg/kg i.v., Ischemia (45 min), before drug 105 ± 5): 111 ± 7 ms | QT (anesthetized dog; 3.0 mg/kg i.v., Ischemia (45 min), before drug 238 ± 11): 264 ± 7 ms | QTc (anesthetized dog; 3.0 mg/kg i.v., Ischemia (45 min), before drug 384 ± 8): 400 ± 8 msec/sec^½ | PR (anesthetized dog; 3.0 mg/kg i.v., reperfusion (60 min), before drug 105 ± 5): 112 ± 5 ms | QT (anesthetized dog; 3.0 mg/kg i.v., reperfusion (60 min), before drug 238 ± 11): 251 ± 11 ms | QTc (anesthetized dog; 3.0 mg/kg i.v., reperfusion (60 min), before drug 384 ± 8): 392 ± 16 msec/sec^½ | PR (anesthetized dog; 10.0 mg/kg i.v., After drug, before drug 109 ± 5): 115 ± 5 ms | QT (anesthetized dog; 10.0 mg/kg i.v., After drug, before drug 251 ± 11): 337 ± 19 ms | QTc (anesthetized dog; 10.0 mg/kg i.v., After drug, before drug 386 ± 3): 440 ± 14 msec/sec^½ | PR (anesthetized dog; 10.0 mg/kg i.v., Ischemia (45 min), before drug 109 ± 5): 113 ± 5 ms | QT (anesthetized dog; 10.0 mg/kg i.v., Ischemia (45 min), before drug 251 ± 11): 312 ± 14 ms | QTc (anesthetized dog; 10.0 mg/kg i.v., Ischemia (45 min), before drug 386 ± 3): 423 ± 10 msec/sec^½ | PR (anesthetized dog; 10.0 mg/kg i.v., reperfusion (60 min), before drug 109 ± 5): 113 ± 6 ms | QT (anesthetized dog; 10.0 mg/kg i.v., reperfusion (60 min), before drug 251 ± 11): 285 ± 11 ms | QTc (anesthetized dog; 10.0 mg/kg i.v., reperfusion (60 min), before drug 386 ± 3): 400 ± 8 msec/sec^½ | heart rate (anesthetized dog; [3]): reduced heart rate in a dose-dependent manner | left ventricular dP/dtmax (anesthetized dog; [3]): reduction in the left ventricular dP/dtmax | mean arterial and left ventricular pressure (anesthetized dog; [3]): only minimal changes | pressure rate product (anesthetized dog; [3]): reduced the pressure rate product | ventricular fibrillation during the ischemic period ([1]; 3.0 mg/kg): one dog | incidence of ventricular fibrillation ([1]; 10.0 mg/kg (only the high dose), ischemia and reperfusion): reduced the incidence of ventricular fibrillation | APA ([2]; 3 µM): 127 ± 1 mV | APD30 ([2]; 3 µM): 93 ± 5 ms | APD50 ([2]; 3 µM): 136 ± 5 ms | APD90 ([2]; 3 µM): 171 ± 5 ms | Overshoot ([2]; 3 µM): 33 ± 1 mV | RMP ([2]; 3 µM): -95 ± 1 mV | Vmax ([2]; 3 µM): 199 ± 30 V/sec | APA ([2]; 10 µM): 128 ± 1 mV | APD30 ([2]; 10 µM): 101 ± 8 ms | APD50 ([2]; 10 µM): 151 ± 7 ms | APD90 ([2]; 10 µM): 190 ± 7 ms | Overshoot ([2]; 10 µM): 34 ± 1 mV | RMP ([2]; 10 µM): -94 ± 1 mV | Vmax ([2]; 10 µM): 209 ± 32 V/sec | APA ([2]; 30 µM): 127 ± 1 mV | APD30 ([2]; 30 µM): 104 ± 7 ms | APD50 ([2]; 30 µM): 160 ± 6 ms | APD90 ([2]; 30 µM): 204 ± 6 ms | Overshoot ([2]; 30 µM): 33 ± 1 mV | RMP ([2]; 30 µM): -94 ± 1 mV | Vmax ([2]; 30 µM): 209 ± 32 V/sec | APA ([2]; 100 µM): 127 ± 1 mV | APD30 ([2]; 100 µM): 102 ± 7 ms | APD50 ([2]; 100 µM): 165 ± 6 ms | APD90 ([2]; 100 µM): 214 ± 7 ms | Overshoot ([2]; 100 µM): 32 ± 1 mV | RMP ([2]; 100 µM): -94 ± 1 mV | Vmax ([2]; 100 µM): 207 ± 34 V/sec | action potential duration ([2]; 3 to 100 µM): dose-dependent increase in action potential duration | resting membrane potential, action potential amplitude, Vmax [2]: did not change
